A short description of series [1]: Sensory evaluation of sweetness linger by expert panel, Example Set G (citric acid/potassium citrate base). The class given is in vivo. The following applies: scale 0-5; 400 ppm REBA in citric acid/potassium citrate composition equivalent to diet lemon-lime beverage, additive per example; sugar control 8 g in 100 ml citrate buffer. Also on record: key: 0=no sweetness linger; 1=very slight sweetness linger; 2=slight sweetness linger; 3=moderate sweetness linger; 4=moderately high sweetness linger; 5=high sweetness linger. The protocol: Sensory evaluation of the samples prepared in Example Set G was carried out under the following protocol, similar to that described hereinabove. In this test protocol, none of the samples were swallowed. All samples were expectorated and the mouth was rinsed with water after the tasting. Immediately upon sensing maximal sweetness, the sample was expectorated, the mouth was rinsed with water and the rate of sweetness decay (“Sweetness Linger”) was measured, where attention was focused on the sweetness 3-4 min after the water rinse. After sample tasting was complete, a salty oyster cracker was chewed followed by a water rinse, and at least 5 minutes followed before tasting the next sample. […]
The effects of formulation change on the sweetness linger of 400 ppm REBA (equivalent to 8 g sucrose) in a citric acid/potassium citrate composition equivalent to that in a diet lemon-lime beverage were evaluated. The sweetness linger rating of this solution was determined to be 5.
8 g of sugar was dissolved in 100 ml of citrate buffer. The sweetness linger rating of this control sample was determined to be 0.

Series [2] in a line: Sensory evaluation of sweetness linger by expert panel, Example Set H (phosphoric acid base). In kind it is in vivo. Also on record: key: 0=no sweetness linger; 1=very slight sweetness linger; 2=slight sweetness linger; 3=moderate sweetness linger; 4=moderately high sweetness linger; 5=high sweetness linger. The following applies: scale 0-5; 500 ppm REBA (H41: 360 ppm) in carbon-treated water, phosphoric acid (75%) to pH 2.4-2.5, additive per example; sugar control 10 g in 100 ml.

Series [3] is described as follows: Rate of dissolution in H2O at 25° C. of rebaudioside A polymorph and amorphous forms. To be noted: grade in words. In kind it is physicochemical.

For the compound `OC[C@H]1O[C@@](CO)(O[C@H]2O[C@H](CO)[C@@H](O)[C@H](O)[C@H]2O)[C@@H](O)[C@@H]1O` [sugar, sucrose], the Sweetness linger in series [1] and in series [2] was 0 in each case. As for rebaudioside A, the Sweetness linger in series [1] and in series [2] was 5 each time. With rebaudioside A [Form 1], the “Rate of dissolution in H2O at 25° C.” value in series [3] is recorded as “Very low”. The same measure, in the same setting: then rebaudioside A [Form 2], with “Intermediate”; and rebaudioside A [Form 3], with “High”.

For the compound rebaudioside A [Form 4], the “Rate of dissolution in H2O at 25° C.” value in series [3] is listed as “High”.
